Data: PMC10539329, “NLRP6 potentiates PI3K/AKT signalling by promoting autophagic degradation of p85α to drive tumorigenesis” (Nature Communications, 2023)
Values belong to the molecule of their own block, whether it stands above or below them. Peptide text beside a SMILES is read from it.

Legend:
[1] = test system: p85α in LN229 cells; assay: NLRP6-induced p85α degradation with pathway inhibitors, immunoblot, LN229; format: cell-based, Human; details: LN229 cells transfected with Flag-NLRP6, immunoblot
Protocol: (§1) For coimmunoprecipitation, cell lysate was collected and incubated with the indicated antibody at 4 °C overnight followed by incubation with Protein A/G beads (Pierce, IL, USA) at 4 °C for 2 h. The unbound proteins were washed away with lysis buffer. The precipitated proteins were separated from the beads. To detect protein expression in frozen tissues or cells, total protein was extracted using RIPA lysis buffer (Beyotime, Shanghai, China) supplemented with protease and phosphatase inhibitors (Beyotime, Shanghai, China). The protein concentration was determined using a BCA protein quantification kit (Beyotime, Shanghai, China) or BCA Protein Assay Kit (BEB, Nanjing, China). The proteins were separated by SDS–PAGE, transferred to polyvinylidene fluoride (PVDF) membranes (Bio–Rad, CA, USA), and incubated with the indicated antibodies. The bands were detected with the ECL Advanced Western blot Detection Kit (Thermo Fisher Scientific, MA, USA) or Super ECL Chemiluminescent Substrate Kit (BEB, Nanjing, China) on a ChemiDoc Touch System (Bio–Rad, CA, USA) or Tanon 4600 (Tanon, Shanghai, China). The band intensities were quantified using Image Lab software (Bio–Rad, CA, USA) or ImageJ software (National Institutes of Health, MD, USA).

[2] = biological target: T1, recombinant NLRP6 (Homo sapiens, UniProt P59044); assay: Biolayer interferometry (BLI) binding of peptides to recombinant NLRP6; details: Octet Red 96, biotin-NLRP6 on streptavidin biosensors, 30 °C, PBS with 0.01% Tween-20, global 1:1 fitting, printed in picture Fig. 6b, representative of three independent experiments
T1 construct: DNA encoding full-length NLRP6 was codon optimized; His (N); MBP (N); made in house; host or cells: E. coli (DE3)
T1 sequence (P59044 1-892): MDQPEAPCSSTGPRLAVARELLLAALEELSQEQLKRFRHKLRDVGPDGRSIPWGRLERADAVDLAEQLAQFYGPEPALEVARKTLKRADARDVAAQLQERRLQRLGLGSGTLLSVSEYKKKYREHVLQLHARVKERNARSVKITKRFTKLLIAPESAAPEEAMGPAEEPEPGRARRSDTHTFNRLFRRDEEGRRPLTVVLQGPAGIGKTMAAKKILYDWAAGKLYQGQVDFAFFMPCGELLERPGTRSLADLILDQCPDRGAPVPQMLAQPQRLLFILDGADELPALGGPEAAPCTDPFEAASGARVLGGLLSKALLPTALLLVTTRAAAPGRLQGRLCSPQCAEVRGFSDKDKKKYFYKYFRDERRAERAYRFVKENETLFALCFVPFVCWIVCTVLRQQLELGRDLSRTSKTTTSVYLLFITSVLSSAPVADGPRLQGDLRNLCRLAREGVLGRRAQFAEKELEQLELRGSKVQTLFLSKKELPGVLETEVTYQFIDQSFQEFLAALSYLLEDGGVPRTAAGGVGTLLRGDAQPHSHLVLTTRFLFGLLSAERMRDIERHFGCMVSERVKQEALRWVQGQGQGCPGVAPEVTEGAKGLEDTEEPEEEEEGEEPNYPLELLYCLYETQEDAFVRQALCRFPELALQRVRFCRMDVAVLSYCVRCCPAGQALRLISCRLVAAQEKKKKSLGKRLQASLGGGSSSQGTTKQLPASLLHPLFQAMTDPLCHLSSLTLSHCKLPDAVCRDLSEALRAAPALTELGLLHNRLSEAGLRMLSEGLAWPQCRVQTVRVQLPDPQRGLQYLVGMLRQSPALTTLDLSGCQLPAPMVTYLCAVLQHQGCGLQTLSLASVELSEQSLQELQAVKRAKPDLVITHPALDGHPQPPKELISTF
Protocol: DNA encoding full-length NLRP6 was codon optimized and chemically synthesized by Genewiz (Soochow, China). The DNA sequence was subcloned into NdeI-XhoI sites of a pDB-His-MBP vector (kindly given by Pro. Chenggui Han, China Agricultural University, Beijing, China). Recombinant NLRP6 protein was expressed and purified following previous reports, with slight modifications. Briefly, the protein was expressed in E. coli (DE3) at 16 °C with 0.5 mM IPTG induction overnight. Then, the protein was purified by Ni affinity and gel filtration chromatography. The p85α WT and p85α mutant sequences were chemically synthesized and subcloned into BamHI-XhoI sites of a pGEX-6P-1 plasmid by GenScript (Nanjing, China). The E. coli (DE3) transformed with the plasmids were grown in LB medium at 37 °C. The culture medium was supplemented with 0.5 mM IPTG followed by incubation at 16 °C for 16–18 h. […] The protein extinction coefficient was calculated by ProtParam, and the protein concentration was determined by the ultraviolet spectrophotometry method.
Eleven α-helical peptides were synthesized (Supplementary Data 7). […] The interaction between the peptides and NLRP6 was determined by BLI using an Octet Red 96 instrument (FortéBio, CA, USA). […] Responses (nanometre shift) were calculated using data that were double reference subtracted using reference wells and nonspecific binding of the biosensor to the analyte. […]

[3] = test system: AKT; details: cited from earlier work
Protocol: To investigate whether NLRs could regulate PI3K/AKT pathway, the FOXO luciferase reporter assay was performed to detect the transcriptional activity of FOXO, which is one of the best characterized targets of PI3K/AKT pathway. Two independent oligonucleotides targeting each of 22 human NLRs were mixed and transfected into LN229 cells. The nontargeting oligonucleotides served as a negative control. The knockdown efficiency targeting each NLR was confirmed by qRT-PCR (Supplementary Fig. 1a). […] Thus, interrupting the interaction between NLRP6 and p85α appears to be an attractive strategy to inhibit tumour growth. α-Helices are the fundamental recognition elements in protein-protein interactions and may serve as ideal inhibitors of macromolecular interactions. According to the observations that the SR domain (amino acids 1–301) on p85α interacted with the NOD domain (amino acids 1 ...

[4] = test system: PI3K/AKT pathway; assay: PI3K/AKT activation by NLRP6 overexpression with MK-2206; format: cell-based
Protocol: as §1

[5] = test system: PI3K/AKT pathway; assay: Immunoblot of PI3K/AKT pathway with Pep9 and SC-79; format: cell-based
Protocol: as §1

[6] = test system: purified NLRP6; assay: ELISA, binding of HRP-conjugated peptide to purified NLRP6; details: ELISA, 1 h
Protocol: DNA encoding full-length NLRP6 was codon optimized and chemically synthesized by Genewiz (Soochow, China). The DNA sequence was subcloned into NdeI-XhoI sites of a pDB-His-MBP vector (kindly given by Pro. Chenggui Han, China Agricultural University, Beijing, China). Recombinant NLRP6 protein was expressed and purified following previous reports, with slight modifications. Briefly, the protein was expressed in E. coli (DE3) at 16 °C with 0.5 mM IPTG induction overnight. Then, the protein was purified by Ni affinity and gel filtration chromatography. The p85α WT and p85α mutant sequences were chemically synthesized and subcloned into BamHI-XhoI sites of a pGEX-6P-1 plasmid by GenScript (Nanjing, China). The E. coli (DE3) transformed with the plasmids were grown in LB medium at 37 °C. The culture medium was supplemented with 0.5 mM IPTG followed by incubation at 16 °C for 16–18 h. The proteins were purified by glutathione-affinity chromatography (Smart-Life Sciences, Changzhou, China) followed by gel filtration chromatography (Cytiva, MA, USA) using PBS. The protein extinction coefficient was calculated by ProtParam, and the protein concentration was determined by the ultraviolet spectrophotometry method.
The 96-well plate was coated with bovine serum albumin (BSA) or purified NLRP6. HRP-conjugated PepC or HRP-conjugated Pep9 was incubated with BSA or NLRP6 for 1 h, and the unbound peptide was washed away. The HRP substrate was added, and the absorbance was detected at 450 nm. For the competitive ELISA, the 96-well plate was coated with purified p85α. The binding of NLRP6 to p85α competed with 10 μM PepC or 5 μM, 10 μM, 20 μM Pep9 for 1 h.

Molecule: Cn1cnc(N)c2ncnc1-2 [3-methyladenine (3-MA), 3-methyladenine]
NLRP6-induced p85α degradation (in words) [1]: attenuated NLRP6-induced p85α degradation

Kd [2]: 9 µM
Molecule: CC(C)C[C@H](NC(=O)[C@H](CC(N)=O)NC(=O)[C@H](CCCCN)NC(=O)[C@H](CO)NC(=O)[C@H](CO)NC(=O)[C@@H](NC(=O)[C@H](CCC(N)=O)NC(=O)[C@H](CO)NC(=O)[C@H](CC(C)C)NC(=O)[C@H](CCCCN)NC(=O)[C@H](Cc1ccccc1)NC(=O)[C@H](Cc1ccccc1)NC(=O)[C@H](Cc1c[nH]cn1)NC(=O)[C@H](CCCCN)NC(=O)[C@H](CC(C)C)NC(=O)[C@H](CC(C)C)NC(=O)[C@H](Cc1ccc(O)cc1)NC(=O)[C@H](CCC(N)=O)NC(=O)[C@H](CC(C)C)NC(=O)[C@@H](NC(=O)[C@H](CC(C)C)NC(=O)[C@H](Cc1c[nH]c2ccccc12)NC(=O)[C@H](Cc1ccc(O)cc1)NC(=O)[C@H](CCC(N)=O)NC(=O)[C@H](Cc1c[nH]cn1)NC(=O)[C@@H]1CCCN1)[C@@H](C)O)[C@@H](C)O)C(=O)O [Pep9] (H-PHQYWLTLQYLLKHFFKLSQTSSKNL-OH)

Molecule: CO/C1=C\C(C)=C\[C@@H](C)[C@@H](O)[C@@H](C)C/C(C)=C/C=C/[C@H](OC)[C@@H]([C@@H](C)[C@@H](O)[C@H](C)[C@@]2(O)C[C@@H](O)[C@H](C)[C@@H](C(C)C)O2)OC1=O [bafilomycin A1 (BafA1), bafilomycin A1]
NLRP6-induced p85α degradation (in words) [1]: attenuated NLRP6-induced p85α degradation

Molecule: NC1(c2ccc(-c3nc4ccn5c(=O)[nH]nc5c4cc3-c3ccccc3)cc2)CCC1 [MK-2206]
AKT inhibition (in words) [3]: highly potent and selective allosteric AKT inhibitor | PI3K/AKT activation by NLRP6 overexpression (in words) [4]: NLRP6 overexpression could not activate PI3K/AKT pathway anymore when MK-2206 was introduced

Molecule: CCOC(=O)C1=C(N)Oc2ccc(Cl)cc2C1C(C#N)C(=O)OCC (stereo not shown) [SC-79]
AKT binding and activation (in words) ([3]; cytosol): specifically binds to the PH domain of AKT and activates AKT in the cytosol | effect of SC-79 on Pep9 inhibition of PI3K/AKT pathway (in words) [5]: The inhibition of Pep9 on PI3K/AKT pathway was reversed when SC79 was added

Molecule: Cl.N [NH4Cl]
NLRP6-induced p85α degradation (in words) [1]: attenuated NLRP6-induced p85α degradation

Molecule: CCN(CC)CCCC(C)Nc1ccnc2cc(Cl)ccc12 (stereo not shown) [chloroquine (CQ), chloroquine]
NLRP6-induced p85α degradation (in words) [1]: attenuated NLRP6-induced p85α degradation

binding of HRP-conjugated peptide to NLRP6 (in words) [6]: could bind to NLRP6
B1: HRP-conjugated Pep9: Horseradish peroxidase (HRP)-conjugated Pep9 (conjugate)
peptide: EADVEQQALTLPDLAEQFAPPDIAPPLLIKLVEAIEKKGLECSTLYRTQSSSNLAELRQLLDCDTPSVDLEMIDVHVLADAFKRYLLDLPNPVIPAAVYSEMISLAPEVQSSEEYIQLLKKLIRSPSIPHQYWLTLQYLLKHFFKLSQTSSKNLLNARVLSEIFSPMLFRFSAASSDNTENLIKVIEILISTEWNERQPAPALPPKPPKPTTVAN
modifications: left off: HRP, end not stated, kept
